Assay results reported in patent US8802597B2, “Herbicidal pyrimidines” (E I du Pont de Nemours and Company, priority 2003, dated 2014).
Read-outs that look alike come from different tables or passages of the source.

Experiments:
Assay type in all cases: in vivo
[1] = test system: Surinam grass (Brachiaria decumbens); assay: Test B pre/postemergence; details: Urochloa decumbens; for pest or weed control at 125 g/ha: 125 g ai/ha; for pest or weed control at 62 g/ha: 62 g ai/ha
Outline: (§1)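 Test chemicals in a non-phytotoxic solvent mixture with surfactant were applied preemergence to planted seeds and postemergence to plants 2 to 18 cm tall (1- to 4-leaf stage). After 13 to 15 days in a greenhouse, injury was visually rated against untreated controls on a 0 to 100 scale.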

[2] = test system: barnyardgrass (Echinochloa crus-galli); assay: Test B pre/postemergence; details: Echinochloa crus-galli, post-emergence, Postemergence, scale 0 to 100 (0 no effect, 100 complete control), read-out: Barnyardgrass plant response rating
Outline: as §1

[3] = test system: cocklebur (Xanthium strumarium); assay: Test B pre/postemergence; details: Xanthium strumarium; for pest or weed control at 62 g/ha: 62 g ai/ha; for pest or weed control at 125 g/ha: 125 g ai/ha
Outline: as §1

corn (Zea mays) = assay: Test B pre/postemergence; details: Zea mays
Outline: as §1

[4] = test system: crabgrass (Digitaria sanguinalis); assay: Test B pre/postemergence; details: Digitaria sanguinalis; for pest or weed control at 62 g/ha: 62 g ai/ha; for pest or weed control at 125 g/ha: 125 g ai/ha
Outline: as §1

[5] = test system: giant foxtail (Setaria faberii); assay: Test B pre/postemergence; details: Setaria faberi; for pest or weed control at 125 g/ha: 125 g ai/ha; for pest or weed control at 62 g/ha: 62 g ai/ha
Outline: as §1

[6] = test system: lambsquarters (Chenopodium album); assay: Test B pre/postemergence; details: Chenopodium album, post-emergence, Postemergence, scale 0 to 100 (0 no effect, 100 complete control), read-out: Lambsquarters plant response rating
Outline: as §1

[7] = test system: morningglory (Ipomoea coccinea); assay: Test B pre/postemergence; details: Ipomoea; for pest or weed control at 62 g/ha: 62 g ai/ha; for pest or weed control at 125 g/ha: 125 g ai/ha
Outline: as §1

[8] = test system: pigweed (Amaranthus retroflexus); assay: Test B pre/postemergence; details: Amaranthus retroflexus, post-emergence, Postemergence, scale 0 to 100 (0 no effect, 100 complete control), read-out: Pigweed plant response rating
Outline: as §1

[9] = test system: velvetleaf (Abutilon theophrasti); assay: Test B pre/postemergence; details: Abutilon theophrasti; for pest or weed control at 62 g/ha: 62 g ai/ha; for pest or weed control at 125 g/ha: 125 g ai/ha
Outline: as §1

[10] = test system: wheat (Triticum aestivum); assay: Test B pre/postemergence; details: Triticum aestivum, scale 0 to 100 (0 no effect, 100 complete control); for plant injury at 62 g/ha: 62 g ai/ha; for plant injury at 125 g/ha: 125 g ai/ha
Outline: as §1

[11] = test system: blackgrass (Alopecurus myosuroides); assay: Test B postemergence; details: Alopecurus myosuroides, post-emergence, scale 0 to 100 (0 no effect, 100 complete control), read-out: Blackgrass plant response rating
Outline: as §1

wild oat (Avena fatua) = assay: Test B postemergence; details: Avena fatua, post-emergence, scale 0 to 100 (0 no effect, 100 complete control), read-out: Oat, Wild plant response rating
Outline: as §1

[12] = test system: barnyardgrass (Echinochloa crus-galli); assay: Test B flooded paddy test; details: Echinochloa crus-galli, Flood, scale 0 to 100, read-out: Plant response rating, Barnyardgrass
Outline: (§2)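 Plants were grown to the 2-leaf stage before treatment, then kept in a greenhouse for 13 to 15 days. Injury was rated visually against untreated controls on a 0 to 100 scale, where 0 is no effect and 100 is complete control.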

[13] = test system: duck salad (Heteranthera limosa); assay: Test B flooded paddy test; details: Heteranthera limosa, Flood, scale 0 to 100, read-out: Plant response rating, Ducksalad
Outline: as §2

rice (Oryza sativa) = assay: Test B flooded paddy test; details: Oryza sativa, Flood, scale 0 to 100, read-out: Plant response rating, Rice
Outline: as §2

[14] = test system: umbrella sedge (Cyperus difformis); assay: Test B flooded paddy test; details: Cyperus difformis, Flood, scale 0 to 100, read-out: Plant response rating, Sedge, Umbrella
Outline: as §2

[15] = post-emergence, Postemergence, scale 0 to 100 (0 no effect, 100 complete control), read-out: Surinam Grass plant response rating
[16] = post-emergence, Postemergence, scale 0 to 100 (0 no effect, 100 complete control), read-out: Cocklebur plant response rating
[17] = post-emergence, Postemergence, scale 0 to 100 (0 no effect, 100 complete control), read-out: Crabgrass plant response rating
[18] = post-emergence, Postemergence, scale 0 to 100 (0 no effect, 100 complete control), read-out: Foxtail, Giant plant response rating
[19] = post-emergence, Postemergence, scale 0 to 100 (0 no effect, 100 complete control), read-out: Morningglory plant response rating
[20] = post-emergence, Postemergence, scale 0 to 100 (0 no effect, 100 complete control), read-out: Velvetleaf plant response rating
[21] = post-emergence, Postemergence, read-out: Wheat plant response rating
[22] = pre-emergence, Preemergence, read-out: Plant response rating, Wheat

With `CCOC(=O)c1nc(-c2ccc(Br)cc2)nc(N)c1Cl` [Compound 94, ethyl 6-amino-2-(4-bromophenyl)-5-chloro-4-pyrimidinecarboxylate] the pest or weed control at 125 g/ha [1, 15] was 80%, the pest or weed control at 62 g/ha [1, 15] was 80% and the pest or weed control at 125 g/ha ([1]; pre-emergence, Preemergence, scale 0 to 100 (0 no effect, 100 complete control), read-out: Plant response rating, Surinam Grass) was 30%. It also gave a pest or weed control at 62 g/ha ([1]; pre-emergence, Preemergence, scale 0 to 100, 0 no effect, 100 complete control, read-out: Plant response rating, Surinam Grass) of 10%, a pest or weed control at 62 g/ha ([2]; 62 g ai/ha) of 80% and a pest or weed control at 125 g/ha ([2]; 125 g ai/ha) of 90%. For the same compound, the pest or weed control at 62 g/ha [3, 16] was 100%, the pest or weed control at 125 g/ha [3, 16] was 100% and the pest or weed control at 62 g/ha ([3]; pre-emergence, Preemergence, scale 0 to 100, 0 no effect, 100 complete control, read-out: Plant response rating, Cocklebur) was 30%. The pest or weed control at 125 g/ha ([3]; pre-emergence, Preemergence, scale 0 to 100 (0 no effect, 100 complete control), read-out: Plant response rating, Cocklebur) was 50%, the plant injury at 62 g/ha (corn (Zea mays); post-emergence, Postemergence, 62 g ai/ha, scale 0 to 100 (0 no effect, 100 complete control), read-out: Corn plant response rating) was 70% and the plant injury at 125 g/ha (corn (Zea mays); post-emergence, Postemergence, 125 g ai/ha, scale 0 to 100 (0 no effect, 100 complete control), read-out: Corn plant response rating) was 90%. For the same compound, the Corn plant response rating (crop injury, 0 = no effect, 100 = complete kill) at 62 g/ha (corn (Zea mays); pre-emergence, Preemergence, 62 g ai/ha, scale 0 to 100, 0 no effect, 100 complete control) was 0%, the Corn plant response rating (crop injury, 0 = no effect, 100 = complete kill) at 125 g/ha (corn (Zea mays); pre-emergence, Preemergence, 125 g ai/ha, scale 0 to 100 (0 no effect, 100 complete control)) was 0% and the pest or weed control at 62 g/ha [4, 17] was 70%. The pest or weed control at 125 g/ha [4, 17] was 80%, the pest or weed control at 62 g/ha ([4]; pre-emergence, Preemergence, scale 0 to 100, 0 no effect, 100 complete control, read-out: Plant response rating, Crabgrass) was 40% and the pest or weed control at 125 g/ha ([4]; pre-emergence, Preemergence, scale 0 to 100 (0 no effect, 100 complete control), read-out: Plant response rating, Crabgrass) was 70%. For the same compound, the pest or weed control at 125 g/ha [5, 18] was 60%, the pest or weed control at 62 g/ha [5, 18] was 50% and the pest or weed control at 125 g/ha ([5]; pre-emergence, Preemergence, scale 0 to 100 (0 no effect, 100 complete control), read-out: Plant response rating, Foxtail, Giant) was 20%. The pest or weed control at 62 g/ha ([5]; pre-emergence, Preemergence, scale 0 to 100, 0 no effect, 100 complete control, read-out: Plant response rating, Foxtail, Giant) was 0%, the pest or weed control at 62 g/ha ([6]; 62 g ai/ha) was 90% and the pest or weed control at 125 g/ha ([6]; 125 g ai/ha) was 90%. The pest or weed control at 62 g/ha [7, 19] was 80%, the pest or weed control at 125 g/ha [7, 19] was 90% and the pest or weed control at 62 g/ha ([7]; pre-emergence, Preemergence, scale 0 to 100, 0 no effect, 100 complete control, read-out: Plant response rating, Morningglory) was 0%. It also gave a pest or weed control at 125 g/ha ([7]; pre-emergence, Preemergence, scale 0 to 100 (0 no effect, 100 complete control), read-out: Plant response rating, Morningglory) of 0%, a pest or weed control at 62 g/ha ([8]; 62 g ai/ha) of 90% and a pest or weed control at 125 g/ha ([8]; 125 g ai/ha) of 90%. It also gave a pest or weed control at 62 g/ha [9, 20] of 90%, a pest or weed control at 125 g/ha [9, 20] of 100% and a pest or weed control at 62 g/ha ([9]; pre-emergence, Preemergence, scale 0 to 100, 0 no effect, 100 complete control, read-out: Plant response rating, Velvetleaf) of 40%. The pest or weed control at 125 g/ha ([9]; pre-emergence, Preemergence, scale 0 to 100 (0 no effect, 100 complete control), read-out: Plant response rating, Velvetleaf) was 70%, the plant injury at 62 g/ha [10, 21] was 40% and the plant injury at 125 g/ha [10, 21] was 60%. The plant injury at 62 g/ha [10, 22] was 30%, the plant injury at 125 g/ha [10, 22] was 60% and the pest or weed control at 62 g/ha ([11]; 62 g ai/ha) was 40%. For the same compound, the pest or weed control at 125 g/ha ([11]; 125 g ai/ha) was 60%, the pest or weed control at 62 g/ha (wild oat (Avena fatua); 62 g ai/ha) was 30% and the pest or weed control at 125 g/ha (wild oat (Avena fatua); 125 g ai/ha) was 30%. The pest or weed control at 125 g/ha ([12]; 125 g ai/ha) was 0%, the pest or weed control at 500 g/ha ([12]; 500 g ai/ha) was 0% and the pest or weed control at 125 g/ha ([13]; 125 g ai/ha) was 100%. The pest or weed control at 500 g/ha ([13]; 500 g ai/ha) was 100%, the plant injury at 125 g/ha (rice (Oryza sativa); 125 g ai/ha) was 0% and the plant injury at 500 g/ha (rice (Oryza sativa); 500 g ai/ha) was 0%. For the same compound, the pest or weed control at 125 g/ha ([14]; 125 g ai/ha) was 90% and the pest or weed control at 500 g/ha ([14]; 500 g ai/ha) was 90%.
